Laboratory results: PubChem BioAssay AID1259407 (Chemical Carcinogenesis Research Information System (CCRIS), 2018)
Activity calls are given as the source filed them. How the calls were made is not given here.

Test system: CCRIS mutagenicity, Ames/micronucleus/aberration tests
Experiment: CCRIS mutagenicity studies

Measured: mutagenic call

Nc1ncnc2c1ncn2-c1ccc([N+](=O)[O-])cc1[N+](=O)[O-]
active: Test System: AMES SALMONELLA TYPHIMURIUM, Strain/Indicator: TA100, Metabolic Activation: NONE, Method: PREINCUBATION active; positive | Test System: AMES SALMONELLA TYPHIMURIUM, Strain/Indicator: YG1024, Metabolic Activation: NONE, Method: PREINCUBATION active; positive | Test System: AMES SALMONELLA TYPHIMURIUM, Strain/Indicator: YG1024, Metabolic Activation: RAT, LIVER, S-9, PCB, Method: PREINCUBATION active; positive | Test System: AMES SALMONELLA TYPHIMURIUM, Strain/Indicator: YG1029, Metabolic Activation: NONE, Method: PREINCUBATION active; positive | Test System: AMES SALMONELLA TYPHIMURIUM, Strain/Indicator: YG1029, Metabolic Activation: RAT, LIVER, S-9, PCB, Method: PREINCUBATION active; positive
inactive: Test System: AMES SALMONELLA TYPHIMURIUM, Strain/Indicator: TA98(1,8-DNP), Metabolic Activation: NONE, Method: PREINCUBATION inactive; negative | Test System: AMES SALMONELLA TYPHIMURIUM, Strain/Indicator: TA98(1,8-DNP), Metabolic Activation: RAT, LIVER, S-9, PCB, Method: PREINCUBATION inactive; negative | Test System: AMES SALMONELLA TYPHIMURIUM, Strain/Indicator: TA98(NR), Metabolic Activation: NONE, Method: PREINCUBATION inactive; negative | Test System: AMES SALMONELLA TYPHIMURIUM, Strain/Indicator: TA98(NR), Metabolic Activation: RAT, LIVER, S-9, PCB, Method: PREINCUBATION inactive; negative | Test System: AMES SALMONELLA TYPHIMURIUM, Strain/Indicator: TA98, Metabolic Activation: NONE, Method: PREINCUBATION inactive; negative | Test System: AMES SALMONELLA TYPHIMURIUM, Strain/Indicator: TA98, Metabolic Activation: RAT, LIVER, S-9, PCB, Method: PREINCUBATION inactive; negative | Test System: AMES SALMONELLA TYPHIMURIUM, Strain/Indicator: TA100(1,8-DNP), Metabolic Activation: RAT, LIVER, S-9, PCB, Method: PREINCUBATION inactive; negative | Test System: AMES SALMONELLA TYPHIMURIUM, Strain/Indicator: TA100(NR), Metabolic Activation: NONE, Method: PREINCUBATION inactive; negative | Test System: AMES SALMONELLA TYPHIMURIUM, Strain/Indicator: TA100(NR), Metabolic Activation: RAT, LIVER, S-9, PCB, Method: PREINCUBATION inactive; negative | Test System: AMES SALMONELLA TYPHIMURIUM, Strain/Indicator: YG1020, Metabolic Activation: RAT, LIVER, S-9, PCB, Method: PREINCUBATION inactive; negative | Test System: AMES SALMONELLA TYPHIMURIUM, Strain/Indicator: YG1021, Metabolic Activation: RAT, LIVER, S-9, PCB, Method: PREINCUBATION inactive; negative | Test System: AMES SALMONELLA TYPHIMURIUM, Strain/Indicator: YG1025, Metabolic Activation: NONE, Method: PREINCUBATION inactive; negative | Test System: AMES SALMONELLA TYPHIMURIUM, Strain/Indicator: YG1025, Metabolic Activation: RAT, LIVER, S-9, PCB, Method: PREINCUBATION inactive; negative | Test System: AMES SALMONELLA TYPHIMURIUM, Strain/Indicator: YG1026, Metabolic Activation: NONE, Method: PREINCUBATION inactive; negative | Test System: AMES SALMONELLA TYPHIMURIUM, Strain/Indicator: YG1026, Metabolic Activation: RAT, LIVER, S-9, PCB, Method: PREINCUBATION inactive; negative

CCCN(CCC)c1c([N+](=O)[O-])cc(C(F)(F)F)cc1[N+](=O)[O-]
inactive: Test System: AMES SALMONELLA TYPHIMURIUM, Strain/Indicator: TA98, Metabolic Activation: LIVER S-9 inactive; negative | Test System: AMES SALMONELLA TYPHIMURIUM, Strain/Indicator: TA98, Metabolic Activation: NONE inactive; negative | Test System: AMES SALMONELLA TYPHIMURIUM, Strain/Indicator: TA100, Metabolic Activation: LIVER S-9 inactive; negative | Test System: AMES SALMONELLA TYPHIMURIUM, Strain/Indicator: TA100, Metabolic Activation: NONE inactive; negative | Test System: AMES SALMONELLA TYPHIMURIUM, Strain/Indicator: TA1535, Metabolic Activation: LIVER S-9 inactive; negative | Test System: AMES SALMONELLA TYPHIMURIUM, Strain/Indicator: TA1535, Metabolic Activation: NONE inactive; negative | Test System: AMES SALMONELLA TYPHIMURIUM, Strain/Indicator: TA1537, Metabolic Activation: LIVER S-9 inactive; negative | Test System: AMES SALMONELLA TYPHIMURIUM, Strain/Indicator: TA1537, Metabolic Activation: NONE inactive; negative | Test System: AMES SALMONELLA TYPHIMURIUM, Strain/Indicator: TA1538, Metabolic Activation: LIVER S-9 inactive; negative | Test System: AMES SALMONELLA TYPHIMURIUM, Strain/Indicator: TA1538, Metabolic Activation: NONE inactive; negative | Test System: CHINESE HAMSTER V-79 CELLS, Strain/Indicator: HGPRT, Metabolic Activation: LIVER S-9 inactive; negative | Test System: CHINESE HAMSTER V-79 CELLS, Strain/Indicator: HGPRT, Metabolic Activation: NONE inactive; negative | Test System: CHO-KI CELLS, Strain/Indicator: HGPRT, Metabolic Activation: LIVER S-9 inactive; negative | Test System: CHO-KI CELLS, Strain/Indicator: HGPRT, Metabolic Activation: NONE inactive; negative | Test System: UDS HELA CELLS, Metabolic Activation: LIVER S-9 inactive; negative | Test System: UDS HELA CELLS, Metabolic Activation: NONE inactive; negative | Test System: UDS RAT HEPATOCYTES, Metabolic Activation: NONE inactive; negative
